Legend:
Type in all cases: in vivo, male Wistar rats
[1] = Indomethacin intoxication, therapeutic: changes in body weight; conditions: Indomethacin 30 mg/kg, Before Indomethacin = 100
Method: (§1) 2 ml/kg of the ulcerogenic dose of indomethacin equal to 30 mg/kg was administered intraperitoneally. The treatment started 24 hrs. post indomethacin administration and continued for 5 days. The animals in the experimental groups received N-isovaleroyl-L-glutamyl-L-tryptophan or the comparator drug Sucralfate, and the control group received distilled water.
Some loss of weight of the intact animals could be contributed to the 18-hr fasting. […]

malondialdehyde (MDA) [2] = test: Indomethacin-induced ulcer model, preventive: malondialdehyde in blood serum
Method: (§2) Intensity of the free radical oxidation was evaluated by the malondialdehyde (MDA) accumulation in blood serum [R.A. Temirbulatov, Ye.I. Seleznev Method for Increasing the Intensity of Free Radical Oxidation in Lipid-Containing Blood Components and its Diagnostic Significance // Labor. Delo, 1981, # 4, p.p. 209 - 211]. The state of the antioxidant systems was evaluated by the superoxide dismutase (SODM) activity [S. Chevari , I. Chaba, Y. Sekei. The Role of Superoxide Dismutase in Cellular Oxidative Processes and Method of its Determination in Biological Materials // Labor. Delo, 1985, # 11, p.p. 678 - 681].
(§3) The efficacy of the course of preventive treatment with the claimed composition was evaluated 24 hrs. post indomethacin administration. The study was conducted as in Example 1.

malondialdehyde (MDA) [3] = test: Water-immersion stress model: malondialdehyde in blood serum
Method: as §2

[4] = system: Alanine aminotransferase (ALT); test: Indomethacin-induced ulcer model, preventive: alanine aminotransferase activity in blood serum
Method: (§4) Alanine aminotransferase (ALT) and alkaline phosphatase (AP) activity in blood serum was determined with "Vital Development Corporation" kits.
as §3

[5] = system: superoxide dismutase (SODM); test: Indomethacin-induced ulcer model, preventive: superoxide dismutase activity in blood serum
Method: as §2, §3

[6] = system: alkaline phosphatase (AP); test: Water-immersion stress model: alkaline phosphatase activity in blood serum
Method: as §4

[7] = Indomethacin-induced ulcer model, preventive: weight of organs
Method: (§5) Intensity of changes caused by stressors in the internal organs of the animals was evaluated by the relative weight changes of the adrenal glands, thymus, and spleen calculated as a ratio of the organ's weight to the body weight of the animal multiplied by 100.
as §3

[8] = system: superoxide dismutase (SODM); test: Water-immersion stress model: superoxide dismutase activity in blood serum
Method: as §2

[9] = system: alkaline phosphatase (AP); test: Indomethacin-induced ulcer model, preventive: alkaline phosphatase activity in blood serum
Method: as §4, §3

[10] = system: Alanine aminotransferase (ALT); test: Indomethacin-induced ulcer model, therapeutic: alanine aminotransferase activity in blood serum; conditions: treatment 5 days after Indomethacin
Method: as §4, §1

[11] = Indomethacin-induced ulcer model, therapeutic: weight of organs; conditions: treatment 5 days after Indomethacin
Method: as §5, §1

[12] = system: alkaline phosphatase (AP); test: Indomethacin-induced ulcer model, therapeutic: alkaline phosphatase activity in blood serum; conditions: treatment 5 days after Indomethacin
Method: as §4, §1

[13] = system: Alanine aminotransferase (ALT); test: Water-immersion stress model: alanine aminotransferase activity in blood serum
Method: as §4

[14] = Water-immersion stress model: weight of organs
Method: as §5

malondialdehyde (MDA) [15] = test: Indomethacin-induced ulcer model, therapeutic: malondialdehyde in blood serum; conditions: for MDA: treatment 5 days after Indomethacin
Method: as §2, §1

[16] = system: superoxide dismutase (SODM); test: Indomethacin-induced ulcer model, therapeutic: superoxide dismutase activity in blood serum; conditions: treatment 5 days after Indomethacin
Method: as §2, §1

[17] = 200 mg/kg + Indomethacin 20 mg/kg
[18] = blood serum, 0.1 mkg/kg + Indomethacin 20 mg/kg, preventive
[19] = blood serum, 10 mkg/kg + Indomethacin 20 mg/kg, preventive
[20] = preventive administration, indomethacin 20 mg/kg
[21] = 0.1 mkg/kg + Indomethacin 20 mg/kg
[22] = 10 mkg/kg + Indomethacin 20 mg/kg

aluminum complex of beta-D-fructofuranosyl-alpha-D-glucopyranoside octakis (hydrosulfate) [Sucralfate]
Body weight In 5 days ([1]; 200 mg/kg): 86.6 ± 2.5 | MDA (malondialdehyde (MDA) [2]; [17]): 0.134 ± 0.024 OD532 | MDA (malondialdehyde (MDA) [3]; 200 mg/kg + stress): 0.147 ± 0.007 OD532 | ALT [4, 17]: 1.05 ± 0.05 mM/hr-L | SODM [5, 17]: 2.68 ± 0.14 con. units/ml | AP ([6]; 200 mg/kg + stress): 1113 ± 77 nM/s-L | Adrenal Glands Rel. wt. [7, 17]: 0.017 ± 0.001% | Liver Rel. wt. [7, 17]: 3.259± 0.049% | Liver Wt. [7, 17]: 7.702 ± 0.224 g | Spleen Rel. wt. [7, 17]: 0.490 ± 0.020% | Spleen Wt. [7, 17]: 1.070 ± 0.041 g | Thymus Rel. wt. [7, 17]: 0.130 ± 0.009% | Thymus Wt. [7, 17]: 0.306 ± 0.023 g | SODM ([8]; 200 mg/kg + stress): 2.32 ± 0.11 con. units/ml | AP [9, 17]: 931 ± 108 nM/s-L | ALT ([10]; 200 mg/kg): 0.69 ± 0.05 mM/h*L | Adrenal Glands Rel. wt. ([11]; 200 mg/kg): 0.023± 0.002% | Adrenal Glands Wt. ([11]; 200 mg/kg): 50.1 ± 3.2 | Liver Rel. wt. ([11]; 200 mg/kg): 3.23 ± 0.13% | Liver Wt. ([11]; 200 mg/kg): 7.158 ± 0.330 g | Spleen Rel. wt. ([11]; 200 mg/kg): 0.57 ± 0.04% | Spleen Wt. ([11]; 200 mg/kg): 1.260 ± 0.083 g | Thymus Rel. wt. ([11]; 200 mg/kg): 0.070 ± 0.005 % | Thymus Wt. ([11]; 200 mg/kg): 0.155 ± 0.011 g | AP ([12]; 200 mg/kg): 1260 ± 104 nM/c*L | ALT ([13]; 200 mg/kg + stress): 1.57 ± 0.06 mM/hr-L | Adrenal Glands Rel Wt. ([14]; 200 mg/kg + stress): 0.017 ± 0.001 % | Adrenal Glands Wt. ([14]; 200 mg/kg + stress): 41.6 ± 2.7 mg | Spleen Rel Wt. ([14]; 200 mg/kg + stress): 0.40 ± 0.02% | Spleen Wt. ([14]; 200 mg/kg + stress): 0.974 ± 0.057 g | Thymus Rel Wt. ([14]; 200 mg/kg + stress): 0.140 ± 0.007% | Thymus Wt. ([14]; 200 mg/kg + stress): 0.327 ± 0.016 g | MDA (malondialdehyde (MDA) [15]; 200 mg/kg): 0.155 ± 0.037 OD532 | SODM ([16]; 200 mg/kg): 2.66 ± 0.11 conv. units/ml

N-isovaleroyl-L-glutamyl-L-tryptophan [VGT preparation]
Body weight In 5 days ([1]; 0.1 mkg/kg): 84.4 ± 2.3 | Body weight In 5 days ([1]; 10.0 mkg/kg): 84.1 ± 3.0 | MDA (malondialdehyde (MDA) [2]; [18]): 0.124 ± 0.009 OD532 | MDA (malondialdehyde (MDA) [2]; [19]): 0.158 ± 0.030 OD532 | reduced the final LP-MDA product concentration compared to control animals (malondialdehyde (MDA) [2]; [20]): 14% | MDA (malondialdehyde (MDA) [3]; 0.1 mkg/kg + stress): 0.130 ± 0.019 OD532 | MDA (malondialdehyde (MDA) [3]; 10 mkg/kg + stress): 0.128 ± 0.020 OD532 | ALT [4, 21]: 1.04 ± 0.06 mM/hr-L | ALT [4, 22]: 1.08 ± 0.06 mM/hr-L | SODM [5, 18]: 2.50 ± 0.05 con. units/ml | SODM [5, 19]: 2.58 ± 0.14 con. units/ml | increased the activity of SODM compared to control animals [5, 20]: 1.6 times | AP ([6]; 0.1 mkg/kg + stress): 1100 ± 54 nM/s-L | AP ([6]; 10.0 mkg/kg + stress): 1123 ± 55 nM/s-L | Adrenal Glands Rel. wt. [7, 21]: 0.017 ± 0.001% | Adrenal Glands Wt. [7, 21]: 37.1 ± 1.3 mg | Liver Rel. wt. [7, 21]: 2.99 ± 0.060% | Liver Wt. [7, 21]: 6.549 ± 0.282 g | Spleen Rel. wt. [7, 21]: 0.433 ± 0.041% | Spleen Wt. [7, 21]: 0.912 ± 0.044 g | Thymus Rel. wt. [7, 21]: 0.124 ± 0.007 % | Thymus Wt. [7, 21]: 0.277 ± 0.018 g | Adrenal Glands Rel. wt. [7, 22]: 0.018 ± 0.001% | Adrenal Glands Wt. [7, 22]: 38.5 ± 1.4 mg | Liver Rel. wt. [7, 22]: 3.053 ± 0.065% | Liver Wt. [7, 22]: 6.770 ± 0.335 g | Spleen Rel. wt. [7, 22]: 0.434 ± 0.018% | Spleen Wt. [7, 22]: 0.926 ± 0.060 g | Thymus Rel. wt. [7, 22]: 0.133 ± 0.009% | Thymus Wt. [7, 22]: 0.320 ± 0.030 g | SODM ([8]; 0.1 mkg/kg + stress): 2.20 ± 0.09 con. units/ml | SODM ([8]; 10 mkg/kg + stress): 2.35 ± 0.11 con. units/ml | AP [9, 21]: 1108 ± 91 nM/s-L | AP [9, 22]: 1180 ± 91 nM/s-L | ALT ([10]; 0.1 mkg/kg): 0.75 ± 0.09 mM/h*L | ALT ([10]; 10.0 mkg/kg): 0.66 ± 0.11 mM/h*L | Adrenal Glands Rel. wt. ([11]; 0.1 mkg/kg): 0.019 ± 0.002% | Adrenal Glands Wt. ([11]; 0.1 mkg/kg): 41.8 ± 5.1 | Liver Rel. wt. ([11]; 0.1 mkg/kg): 3.27 ±0.18% | Liver Wt. ([11]; 0.1 mkg/kg): 7.062 ± 0.411 g | Spleen Rel. wt. ([11]; 0.1 mkg/kg): 0.48 ± 0.03% | Spleen Wt. ([11]; 0.1 mkg/kg): 1.061 ± 0.085 g | Thymus Rel. wt. ([11]; 0.1 mkg/kg): 0.081 ± 0.007% | Thymus Wt. ([11]; 0.1 mkg/kg): 0.173 ± 0.018 g | Adrenal Glands Rel. wt. ([11]; 10.0 mkg/kg): 0.022 ± 0.002% | Adrenal Glands Wt. ([11]; 10.0 mkg/kg): 48.3 ± 2.2 | Liver Rel. wt. ([11]; 10.0 mkg/kg): 3.76 ± 0.020 % | Liver Wt. ([11]; 10.0 mkg/kg): 8.310 ± 0.426 g | Spleen Rel. wt. ([11]; 10.0 mkg/kg): 0.56 ± 0.05% | Spleen Wt. ([11]; 10.0 mkg/kg): 1.233 ± 0.104 g | Thymus Rel. wt. ([11]; 10.0 mkg/kg): 0.078 ± 0.008% | Thymus Wt. ([11]; 10.0 mkg/kg): 0.179 ± 0.032 g | AP ([12]; 0.1 mkg/kg): 1357 ± 58 nM/c*L | AP ([12]; 10.0 mkg/kg): 1368 ± 148 nM/c*L | ALT ([13]; 0.1 mkg/kg + stress): 1.55 ± 0.15 mM/hr-L | ALT ([13]; 10.0 mkg/kg + stress): 1.78 ± 0.08 mM/hr-L | Adrenal Glands Rel Wt. ([14]; 0.1 mkg/kg + stress): 0.017 ± 0.001 % | Adrenal Glands Wt. ([14]; 0.1 mkg/kg + stress): 40.8 ± 1.1 mg | Spleen Rel Wt. ([14]; 0.1 mkg/kg + stress): 0.37 ± 0.06 % | Spleen Wt. ([14]; 0.1 mkg/kg + stress): 0.872 ± 0.066 g | Thymus Rel Wt. ([14]; 0.1 mkg/kg + stress): 0.124 ± 0.010 % | Thymus Wt. ([14]; 0.1 mkg/kg + stress): 0.307 ± 0.028 g | reducing adrenal weight compared to that of the control animals ([14]; 0.1 mkg/kg + stress): 16 - 17% | Adrenal Glands Rel Wt. ([14]; 10.0 mkg/kg + stress): 0.018 ± 0.001 % | Adrenal Glands Wt. ([14]; 10.0 mkg/kg + stress): 45.2 ± 2.2 mg | Spleen Rel Wt. ([14]; 10.0 mkg/kg + stress): 0.41 ± 0.03% | Spleen Wt. ([14]; 10.0 mkg/kg + stress): 0.977 ± 0.082 g | Thymus Rel Wt. ([14]; 10.0 mkg/kg + stress): 0.154 ± 0.008% | Thymus Wt. ([14]; 10.0 mkg/kg + stress): 0.350 ± 0.022 g | lowered the relative weight of the spleen compared to that of the intact animals ([14]; small doses + stress): 24% | MDA (malondialdehyde (MDA) [15]; blood serum, 0.1 mkg/kg): 0.169 ± 0.012 OD532 | MDA (malondialdehyde (MDA) [15]; blood serum, 10.0 mkg/kg): 0.217 ± 0.030 OD532 | reduced MDA content (malondialdehyde (MDA) [15]; small dose, treatment after Indomethacin): 70% | SODM ([16]; 0.1 mkg/kg): 3.1 ± 0.11 conv. units/ml | SODM ([16]; 10.0 mkg/kg): 3.06 ± 0.16 conv. units/ml
